Measurements taken from ChEMBL document CHEMBL1146164, “Synthesis and evaluation of aminomethyl dihydrocinnamates as a new class of PPAR ligands” (Bioorg Med Chem Lett, 2006).

Tests used:
[1] = target: T1, Peroxisome proliferator-activated receptor gamma (Homo sapiens, UniProt P37231)
T1 sequence (P37231 whole entry): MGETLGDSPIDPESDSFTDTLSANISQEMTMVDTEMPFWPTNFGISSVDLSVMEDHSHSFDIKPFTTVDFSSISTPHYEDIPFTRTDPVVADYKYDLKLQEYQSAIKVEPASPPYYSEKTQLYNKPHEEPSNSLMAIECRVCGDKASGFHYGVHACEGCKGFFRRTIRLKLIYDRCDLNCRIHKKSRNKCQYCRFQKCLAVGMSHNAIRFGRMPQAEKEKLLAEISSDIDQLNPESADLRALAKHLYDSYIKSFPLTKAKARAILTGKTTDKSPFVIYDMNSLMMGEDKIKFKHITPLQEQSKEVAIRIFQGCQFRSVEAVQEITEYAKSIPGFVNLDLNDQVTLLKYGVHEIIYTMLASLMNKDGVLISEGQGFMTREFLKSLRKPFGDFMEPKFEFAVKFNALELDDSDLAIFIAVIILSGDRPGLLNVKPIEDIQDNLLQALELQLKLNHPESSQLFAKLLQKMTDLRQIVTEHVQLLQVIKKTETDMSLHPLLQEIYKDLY
Description: Displacement of [3H]2-methyl-2-(4-{3-propyl-(5-pyridin-2yl-thiophene-2-sulfonyl)-amino]-pro-pyl}-phenoxy)-propionic acid from human PPARgamma

[2] = target: T1, Peroxisome proliferator-activated receptor gamma; remark: listed apart in the source
Description: Activity at human PPARgamma in CV1 cells

[3] = target: T2, Peroxisome proliferator-activated receptor alpha (Homo sapiens, UniProt Q07869); assay: Displacement of [3H]2-(4-{2-[3-(2,4-difluoro-phenyl)-1-heptyl-ureido]-ethyl}-phenoxy)-2-methyl-butyric acid from hPPARalpha
T2 sequence (Q07869 whole entry): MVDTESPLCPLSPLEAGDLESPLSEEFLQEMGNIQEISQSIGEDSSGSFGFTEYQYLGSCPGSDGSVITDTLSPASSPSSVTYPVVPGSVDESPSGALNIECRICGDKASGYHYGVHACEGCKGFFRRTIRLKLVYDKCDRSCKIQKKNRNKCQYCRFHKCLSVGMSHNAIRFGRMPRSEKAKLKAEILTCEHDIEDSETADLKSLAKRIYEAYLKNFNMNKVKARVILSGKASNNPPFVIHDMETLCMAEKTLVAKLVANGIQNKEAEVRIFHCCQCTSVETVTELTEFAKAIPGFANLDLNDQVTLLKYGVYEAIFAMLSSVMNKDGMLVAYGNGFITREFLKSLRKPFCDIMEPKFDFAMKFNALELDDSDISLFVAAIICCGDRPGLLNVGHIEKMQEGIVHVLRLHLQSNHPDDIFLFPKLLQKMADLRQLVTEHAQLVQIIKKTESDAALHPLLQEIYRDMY

[4] = target: T2, Peroxisome proliferator-activated receptor alpha; assay: Activity at human PPARalpha in CV1 cells; type: cell-based, CV-1
[5] = target: T3, Peroxisome proliferator-activated receptor alpha (Homo sapiens) (UniProt Q07869); assay: Activity at human PPARalpha in CV1 cells by CTF assay relative to 2-(4-{2-[3-(2,4-difluoro-phenyl)-1-heptyl-ureido]-ethyl}-phenoxy)-2-methyl-butyric acid; type: cell-based; details: CV-1
T3 sequence (whole entry): T2 sequence (Q07869 whole entry)

Rattus norvegicus = assay: Reduction of plasma glucose level in orally dosed Zucker diabetic fatty rat; type: functional; details: ZDF, po
Mus musculus = assay: Reduction of plasma glucose level in db/db mouse at 30 mg/kg, po relative to rosiglitazone; type: functional; set-up: scale not given: the % may be the effect or the level left

Compound	IC50 [1] [nM]	EC50 [2] [nM]	IC50 [3] [nM]	EC50 [4] [nM]	Efficacy [5] [%]	ED50 (Rattus norvegicus) [mg/kg]	Activity (Mus musculus) [%]
Cc1oc(-c2ccccc2)nc1CCOc1ccc(CCC(=O)O)c(CNS(=O)(=O)Cc2ccccc2)c1	72	527	3390	2940	33		
Cc1oc(-c2ccc(-c3ccccc3)cc2)nc1CCOc1ccc(CCC(=O)O)c(CNC(=O)OC(C)C)c1	47	19	3490	845		0.02	56
CC(C)(Oc1ccc(C(=O)c2ccc(Cl)cc2)cc1)C(=O)O [FENOFIBRIC ACID]			> 10000	2650	35		
Cc1oc(-c2ccccc2)nc1CCOc1ccc(CCC(=O)O)c(CNC(=O)NCc2ccccc2)c1	706	2680	> 10000		5		
Cc1oc(-c2ccc(Oc3ccccc3)cc2)nc1CCOc1ccc(CCC(=O)O)c(CNC(=O)OC(C)C)c1	50	2	516	78	46	0.05	
Cc1oc(-c2ccccc2)nc1CCOc1ccc(CCC(=O)O)c(CNC(=O)OC(C)C)c1	26	8	146	70	51		58
Cc1sc(N2CCOCC2)nc1CCOc1ccc(CCC(=O)O)c(CNC(=O)OC(C)C)c1	22	28	1490	986	37	0.12	58
Cc1oc(-c2ccc(-c3ncccn3)cc2)nc1CCOc1ccc(CCC(=O)O)c(CNC(=O)OC(C)C)c1	50	4	9940	900	37	0.04	52
Cc1oc(-c2ccccc2)nc1CCOc1ccc(CCC(=O)O)c(CNC(=O)CCc2ccccc2)c1	161	1020	4960	2800	32		
Cc1oc(-c2ccc(-c3ccccc3)cc2)nc1CCOc1ccc(CCC(=O)O)c(CNC(=O)Oc2cnccn2)c1	26	2	449	198	68	0.03	87
Cc1oc(-c2ccccc2)nc1CCOc1ccc(CCC(=O)O)c(CNC(=O)OCc2ccccc2)c1	91	115	441	515	54		
Cc1oc(-c2ccccc2)nc1CCOc1ccc(CCC(=O)O)c(CNC(=O)Oc2cnccn2)c1	17	7	53	35	60		
